# Reference: patent US8063089B2, “Inhibitors of nucleophosmin (NPM) and methods for inducing apoptosis” (Arizona Board of Regents on Behalf of the University of …, priority 2007, dated 2011)
# pIC50: −log10 of the molar value.
# Tests used:
# [1] = test system: LNCaP; assay: Apoptosis markers by immunoblotting (PARP cleavage, H2AX phosphorylation); assay type: cell-based, human; conditions: 4 and 5 μM
# Procedure: Immunoblotting. LNCaP or HCT116 cells were lysed in NP-40 lysis buffer containing 50 mM Tris-Cl (pH 7.4), 0.15 M NaCl, 0.5% NP-40, 1 mM DTT, 50 mM sodium fluoride and 2 μl/ml of a protease inhibitor cocktail (Sigma, St. Louis, Mo.). Protein concentrations were-determined using the Bio-Rad protein assay kit (Hercules, Calif.) and 50 μg of protein was resolved by electrophoresis on a 10% SDS-PAGE. The proteins were then transferred onto a nitrocellulose membrane and nonspecific binds were blocked by incubating with 5% nonfat milk in TBST buffer (0.01 M Tris-Cl, pH 8.0, 0.15 M NaCl, 0.5% Tween-20) at room temperature for 1 hr. The membrane was subjected to the indicated antibodies and the proteins were detected by the SuperSignal West Pico detection system (Pierce, Rockford, Ill.). For native PAGE gel experiment, the samples were not denatured by heating and the electrophoresis was run in the absence of SDS.
# [2] = test system: LNCaP prostate cell line; assay: MTT cell viability assay, LNCaP; assay type: cell-based; conditions: Homo sapiens, 96 h, 4 days
# Procedure: NPM plays an essential role in cellular activities such as ribosome biogenesis, cell proliferation, apoptosis and centrosome duplication. Therefore, inhibition of NPM should affect cell growth. To determine the effect of NPM inhibitor NSC348884 on cancer cell proliferation, cell viability assays were conducted on LNCaP and Granta (human mantle cell lymphoma) cells (Granta-519, -4, -22) with varying concentrations of NSC348884 over 4 days. […] The difference in IC50 is attributed to the differential proliferative capacity of the two types of cancer cell lines. Since Rev peptide binds to NPM and potentates the doxorubicin-induced decrease of cellular viability and inhibition of tumor growth in nude mice (Chan et al., 2005), we evaluated if NSC348884 would be additive or synergistic with doxorubicin, a therapy commonly used in this disease. An IC50 of 0.01-0.02 μM for doxorubicin was established for all 3 Granta cell lines, while at 0.1 nM doxorubicin had no effect on cell viability
# Cells and Reagents. […]
# Cell Viability Assays. […] The media and MTT dye were aspirated, and 100 μL dimethyl sulfoxide (DMSO) was added to each well, absorbance was read at 540 nm on a plate reader (Wallac Vector, PerkinElmer). Data was expressed as the percent survival of control calculated from the absorbance, corrected for background.
# [3] = target: T1, NPM oligomer (Homo sapiens, UniProt P06748); assay: NPM oligomer formation by native PAGE / immunoblotting; assay type: cell-based; conditions: LNCaP and HCT116 cells, 5 and 6 μM, 24 hr
# T1 construct: endogenous in cells; host or cells: LNCaP and HCT116
# Procedure: (§1) To examine whether NSC348884 specifically interacts with NPM and disrupts its oligomer formation, LNCaP and HCT116 cells with wild type NPM (no translocations) were treated with varying concentrations of NSC348884 (0, 5, 6 μM) for 24 hr, lyzed under non-denaturing conditions and analyzed by native PAGE which is an excellent tool for detecting oligomers and aggregates since the protein retains its folded conformation. We utilized 14-3-3 which forms dimers as a control. […] The two bands shown in HCT116 represent different isoforms of 14-3-3 proteins. Taken together, NSC348884 is able to bind to NPM and interfere with oligomer formation of NPM specifically.
# (§2) Immunoblotting. LNCaP or HCT116 cells were lysed in NP-40 lysis buffer containing 50 mM Tris-Cl (pH 7.4), 0.15 M NaCl, 0.5% NP-40, 1 mM DTT, 50 mM sodium fluoride and 2 μl/ml of a protease inhibitor cocktail (Sigma, St. Louis, Mo.). Protein concentrations were-determined using the Bio-Rad protein assay kit (Hercules, Calif.) and 50 μg of protein was resolved by electrophoresis on a 10% SDS-PAGE. […] The membrane was subjected to the indicated antibodies and the proteins were detected by the SuperSignal West Pico detection system (Pierce, Rockford, Ill.). […]
# [4] = test system: LNCaP cells; assay: Apoptosis by morphology (acridine orange/ethidium bromide fluorescent staining); assay type: cell-based, human; conditions: 24 hr
# Procedure: (§3) Apoptosis Assays. Drug treated LNCaP cells were examined for apoptotic morphology using a fluorescence staining technique as described previously (Qi and Martinez, 2003). Briefly, cells were exposed to DMSO or 1 to 5 μM of NSC348884 for 24 hr and were harvested by trypsinization. After staining with a mixed dye solution containing […] each of acridine orange and ethidium bromide the morphology of the cells were observed by fluorescence microscopy, and the number of apoptotic cells was quantified. Studies were performed in triplicate and mean+SD calculated. In all cases a minimum of 200 cells were counted for each sample. Using Annexin V staining to detect apoptosis, treated MCF-7, PC-3, DU145 and Granta (−519, −4, −22) cells were harvested by trypsinization and rinsed with cold PBS once. After centrifugation for 5 min, cancer cells were resuspended in 500 μl of 1 Annexin V binding buffer (BioVision, Annexin V-FITC Reagent Kit, Cat. #1001-1000) and then added 1 μl of Annexin V-FITC and 1 μl of Propidium Iodide (BioVision, Annexin VFITC Reagent Kit). After incubation for 5 min at room temperature in the dark, the samples were analyzed by flow cytometry.
# [5] = test system: MCF7, PC-3, DU145 and Granta cells; assay: Annexin V staining and flow cytometry; assay type: cell-based, human; conditions: several different cancer cell lines, 24 h
# Procedure: Furthermore, apoptosis induced by NSC348884 was confirmed by Annexin V staining and flow cytometry (FACS) analysis.
# as §3
# [6] = test system: HCT116 colon cancer cells; assay: SCID mouse HCT116 colon cancer xenograft; assay type: in vivo, SCID mice; conditions: for survival: i.p. for 4 weeks, NSC348884 1.5 mg/kg Mon/Wed/Fri, doxorubicin 20 ug/kg Mon
# Procedure: SCID mice were inoculated with 10×10^6 HCT116 colon cancer cells in their flanks to form measurable tumors in the range 60-100 mm^3. Mice were pair matched with 12 mice per arm. NSC348884 was administered (Monday, Wednesday, Friday), Doxorubicin (Monday), combination or vehicle by intra-peritoneal injection each for 4 weeks. Measurements of tumor growth were performed twice a week and tumor volume estimated according to the formula: [(width)^2×length]/2. Mice were weighed before the beginning of the experiment and twice a week thereafter to check for signs of toxicity. Control mice (upper panel, first bar) were treated with vehicle (DMSO), NSC348884 at 1.5 mg/kg NSC348884 (upper panel, second bar), very low dose doxorubicin at 20 ug/kg (upper panel, third bar), and the combination of NSC348884/doxorubicin (upper panel, fourth bar).
# [7] = test system: distinct cancer cell lines; assay: Inhibition of cell proliferation, summary; assay type: cell-based; conditions: Homo sapiens
# Procedure: Cell Viability Assays. LNCaP, Granta-4, Granta-22 and Granta-519 cell lines were seeded into 96-well tissue culture plates with 50,000 cells per well, cultured for 24 hours and exposed to NSC348884, doxorubicin or combination for four days. All studies were performed in triplicate and were repeated 3 different times. After incubation, 20 μL of 2 mg/m L 3-(4,5-dimethylthiazol-2-yl)-2,5-diphenyltetrazolium bromide (MTT) were added to each well and incubated an additional four hours. The media and MTT dye were aspirated, and 100 μL dimethyl sulfoxide (DMSO) was added to each well, absorbance was read at 540 nm on a plate reader (Wallac Vector, PerkinElmer). Data was expressed as the percent survival of control calculated from the absorbance, corrected for background.
# [8] = test system: 14-3-3 dimer; assay: 14-3-3 dimer formation control, native PAGE; assay type: cell-based, human; conditions: LNCaP and HCT116 cells, 5 and 6 μM, 24 hr
# Procedure: as §1, §2
# [9] = test system: Granta (-4, -22 and -519) mantle cell lymphoma cell lines; assay: MTT cell viability assay, Granta; assay type: cell-based, human; conditions: for pIC50: Homo sapiens, 96 h, Granta-4, -22, -519, MTT
# Procedure: Cells and Reagents. Human cancer cell lines used herein include prostate (LNCaP, PC3, DU145), colon (HCT116), lung (A549), breast (MCF7) purchased from American Type Culture Collection (Rockville, Md.) and mantle cell lymphoma (Granta-4, -22 and -519) were maintained in RPMI 1640 medium (Mediatech, Va.) supplemented with 10% fetal bovine serum, 2 mM sodium pyruvate and 100 units/ml penicillin/streptomycin at 37° C. in a humidified atmosphere of 5% CO2.
# [10] = test system: p53; assay: p53 / p21 Western blotting; assay type: cell-based, human
# [11] = test system: p53; assay: p53 immunocytochemistry; assay type: cell-based, human; conditions: LNCaP and A549, 5 μM, 6 h, versus vehicle
# Text: Mounting evidences indicate that NPM negatively regulates tumor suppressor p53 through interaction with p53 directly to prevent its phosphorylation on Ser15 (Maiguel et al., 2004) or through binding with p14ARF to impair the ARF-Hdm2 association and increase Hdm2/p53 complex formation (Gjerset, 2006). NPM knockdown by small interfering RNA enhances p53 phosphorylation and transcriptional activity. Therefore, inhibition of NPM by NSC348884 could affect p53 status. To address this, LNCaP cells were untreated and treated with different dosage of NSC348884 for 2 h to 24 h, and the changes in p53 protein and phosphorylation levels were determined by Western blot. Indeed, NSC348884 increased both p53 protein level and phosphorylation on Ser15 in a dose-dependent manner after 2 h of incubation (FIG. 5A).
# Immunocytochemistry. LNCaP, A549 or HCT116 cells grown on cover slips were treated with DMSO or 5 μM of NSC348884 for 6 hr and then fixed in cold methanol:acetone (3:7) for 5 minutes. The cover slips were washed twice with cold PBS and blocked with blocking buffer (1% BSA, 0.01% saponin and 1% normal mouse serum in PBS) for 1 hr at room temperature. The cover slips were then immunostained using anti-p53 antibody at the dilution 1:100 in blocking buffer overnight at 4° C. […]
# T1 sequence (P06748 whole entry): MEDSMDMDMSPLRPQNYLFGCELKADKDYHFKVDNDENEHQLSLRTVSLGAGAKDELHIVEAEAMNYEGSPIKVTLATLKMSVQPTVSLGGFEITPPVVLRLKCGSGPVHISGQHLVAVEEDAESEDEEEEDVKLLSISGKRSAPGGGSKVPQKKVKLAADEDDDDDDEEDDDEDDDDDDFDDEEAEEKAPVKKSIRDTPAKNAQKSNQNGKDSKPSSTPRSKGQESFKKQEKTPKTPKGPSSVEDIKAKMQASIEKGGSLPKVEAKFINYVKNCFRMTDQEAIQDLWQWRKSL
Structure (SMILES),PARP-cleavage and H2AX phosphorylation on Ser139 [1],pIC50 [2],NPM oligomer formation [3],"apoptosis by morphology, dose dependence ([4]; 0-5 μM)",apoptosis by morphology ([4]; 4 and 5 μM),apoptosis by Annexin V binding [5],survival [6],survival advantage ([6]; versus control),pIC50 [7],14-3-3 dimer formation [8],pIC50 ([9]; 4 days),"effect on cell viability ([9]; NSC348884 at 1 μM alone, 4 days, MTT)","p21 protein level ([10]; HCT116, 5 μM, 24 h)","p53 protein level and phosphorylation on Ser15 ([10]; LNCaP, after 2 h of incubation)",p53 level ([10]; breast cancer cell line MCF7),p53 by immunocytochemistry staining [11],effect on cell viability ([9]; doxorubicin at 0.1 nM alone)
"Cc1ccc2nc(CN(CCN(Cc3nc4ccc(C)cc4[nH]3)Cc3nc4ccc(C)cc4[nH]3)Cc3nc4ccc(C)cc4[nH]3)[nH]c2c1 [NSC348884, N,N,N′,N′-tetrakis[(5-methyl-2-benzimidazolyl)methyl]-1,2-ethanediamine]",correlated well with PARP-cleavage and induction H2AX phosphorylation,~5.40,disrupted,dose-dependent increase in apoptosis,> 50%,induced apoptosis,53 days,statistically significant survival advantage,5.40 to 5.77,no effect,~5.77,no effect,up-regulated,increased,enhanced p53,higher p53 proteins were induced,
"COc1cccc2c1C(=O)c1c(O)c3c(c(O)c1C2=O)C[C@@](O)(C(=O)CO)C[C@@H]3O[C@H]1C[C@H](N)[C@H](O)[C@H](C)O1 [doxorubicin, reference compound]",,,,,,,41 days,,,,7.70 to 8.00,,,,,,no effect
